# According to US20150315188A1, “COMPOUNDS AND METHODS FOR TREATMENT OF HYPERTENSION” (MEDIVATION TECHNOLOGIES, INC., priority 2012, published 2015):
# pIC50, pKi: −log10 of the molar value.
# Key:
# [1] = target: T1, rat adrenergic α1B receptor (Rattus norvegicus, UniProt P15823); assay: Radioligand binding, adrenergic α1B (Protocol Group A); settings: 0.1 μM compound, [3H]Prazosin; for inhibition at 0.1 µM: read-out: percent inhibition of specific binding, Adrenergic α1B
# T1 construct: rat adrenergic α1B receptor obtained from Wistar Rat liver; from tissue; host or cells: Wistar rat liver
# T1 sequence (P15823 1-515): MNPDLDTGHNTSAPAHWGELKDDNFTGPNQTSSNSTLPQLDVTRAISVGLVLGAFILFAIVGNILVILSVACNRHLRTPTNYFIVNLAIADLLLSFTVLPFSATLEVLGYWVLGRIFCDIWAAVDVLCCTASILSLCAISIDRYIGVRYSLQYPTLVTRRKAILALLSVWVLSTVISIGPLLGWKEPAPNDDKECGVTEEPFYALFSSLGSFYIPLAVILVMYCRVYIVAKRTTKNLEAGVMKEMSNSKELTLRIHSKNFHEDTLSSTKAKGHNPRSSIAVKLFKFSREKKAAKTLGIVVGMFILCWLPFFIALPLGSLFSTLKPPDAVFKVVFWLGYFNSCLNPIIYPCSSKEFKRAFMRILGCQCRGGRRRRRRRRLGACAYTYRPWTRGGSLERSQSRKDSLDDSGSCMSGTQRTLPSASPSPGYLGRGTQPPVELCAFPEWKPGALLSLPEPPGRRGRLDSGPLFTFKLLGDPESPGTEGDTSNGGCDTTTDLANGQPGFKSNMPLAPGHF
# Experimental: To evaluate in radioligand binding assays the activity of compounds of the invention, rat adrenergic α1B receptor obtained from Wistar Rat liver (Garcia-S'ainz, J. et al, Biochem. Biophys. Res. Commun. 186:760, 1992; Michel, A. et al, Br. J. Pharmacol. 98:883, 1989) in a modified Tris-HCl buffer (50 mM Tris-HCl buffer, pH 7.4, 0.5 mM EDTA) was used. Compounds of the invention were incubated with 0.25 nM [^3H]Prazosin for 60 min at 25° C. Non-specific binding was estimated in the presence of 10 μM phentolamine. Receptor proteins were filtered and washed, the filters were then counted to determine [^3H]Prazosin specifically bound. Compounds were screened at 1 μM or lower, using 1% DMSO as vehicle. Compounds of the invention were tested in this biochemical assay and percent inhibition of specific binding was determined. Biochemical assay results are presented as the percent inhibition of specific binding in Table B1a.
# [2] = target: T2, Human adrenergic α2B receptor (Homo sapiens, UniProt P18089); assay: Radioligand binding, adrenergic α2B (Protocol Group A); set-up: expressed in transfected cells; host or cells: CHO-K1; settings: 0.03 μM compound, [3H]Rauwolscine; for inhibition at 0.03 µM: read-out: percent inhibition of specific binding, Adrenergic α2B
# T2 sequence (P18089 1-450): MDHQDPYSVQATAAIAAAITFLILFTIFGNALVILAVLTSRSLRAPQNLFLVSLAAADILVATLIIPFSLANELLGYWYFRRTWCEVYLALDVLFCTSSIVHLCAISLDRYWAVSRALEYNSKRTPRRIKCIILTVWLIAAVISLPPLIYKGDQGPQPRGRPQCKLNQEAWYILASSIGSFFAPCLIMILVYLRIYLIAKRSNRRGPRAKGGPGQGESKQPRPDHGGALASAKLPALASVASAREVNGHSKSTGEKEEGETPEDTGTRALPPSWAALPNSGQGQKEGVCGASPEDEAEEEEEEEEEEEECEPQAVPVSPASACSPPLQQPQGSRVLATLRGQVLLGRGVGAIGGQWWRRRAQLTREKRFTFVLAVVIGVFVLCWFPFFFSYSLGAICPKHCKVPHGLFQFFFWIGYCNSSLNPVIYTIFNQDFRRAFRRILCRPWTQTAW
# Experimental: To evaluate in radioligand binding assays the activity of compounds of the invention, human recombinant adrenergic α2B receptor expressed in Chinese hamster ovary (CHO) K1 cells (Uhlen, S. et al, Eur. J. Pharmacol. 343(1):93, 1998) in a modified Tris-HCl buffer (50 mM Tris-HCl, pH 7.4, 12.5 mM MgCl2, 1 mM EDTA, 0.2% BSA) was used. Compounds of the invention were incubated with 2.5 nM [3H]Rauwolscine for 60 min at 25° C. Non-specific binding was estimated in the presence of 10 μM Prazosin. Receptor proteins were filtered and washed, the filters were then counted to determine [3H]Rauwolscine specifically bound. Compounds were screened at 1 μM or lower, using 1% DMSO as vehicle. Compounds of the invention were tested in this biochemical assay and percent inhibition of specific binding was determined. Biochemical assay results are presented as the percent inhibition of specific binding in Table B1a.
# [3] = target: T3, Human adrenergic α2A receptor (Homo sapiens, UniProt P08913); assay: Radioligand binding, adrenergic α2A (Protocol Group A); set-up: expressed in transfected cells; host or cells: insect Sf9 cells; settings: 0.1 μM compound; for inhibition at 0.1 µM: [3H]MK-912, read-out: percent inhibition of specific binding, Adrenergic α2A
# T3 sequence (P08913 1-465): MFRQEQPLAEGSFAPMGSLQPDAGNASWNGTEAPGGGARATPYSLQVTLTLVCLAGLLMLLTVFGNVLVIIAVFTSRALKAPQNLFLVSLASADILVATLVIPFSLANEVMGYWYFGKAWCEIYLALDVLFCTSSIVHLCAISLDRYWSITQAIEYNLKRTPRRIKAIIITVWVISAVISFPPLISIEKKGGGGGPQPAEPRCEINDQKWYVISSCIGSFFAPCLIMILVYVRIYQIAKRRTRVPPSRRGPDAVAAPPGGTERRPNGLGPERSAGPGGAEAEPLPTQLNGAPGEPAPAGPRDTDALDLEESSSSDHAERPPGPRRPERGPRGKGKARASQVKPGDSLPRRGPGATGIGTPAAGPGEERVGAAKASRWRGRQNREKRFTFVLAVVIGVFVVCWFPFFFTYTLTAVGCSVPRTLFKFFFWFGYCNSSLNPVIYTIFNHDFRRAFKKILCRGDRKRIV
# Experimental: To evaluate in radioligand binding assays the activity of compounds of the invention, human recombinant adrenergic α2A receptor expressed in insect Sf9 cells (Uhlen, S. et al, J. Pharmacol. Exp. Ther. 271:1558, 1994) in a modified Tris-HCl buffer (50 mM Tris-HCl, pH 7.4, 12.5 mM MgCl2, 2 mM EDTA) was used. Compounds of invention were incubated with 1 nM [^3H]MK-912 for 60 min at 25° C. MK912 is (2S-trans)-1,3,4,5′,6,6′,7,12b-octahydro-1′,3′-dimethyl-spiro[2H-benzofuro[2,3-a]quinolizine-2,4′(1′H)-pyrimidin]-2′(3′H)-one hydrochloride. Non-specific binding was estimated in the presence of 10 μM WB-4101 (2-(2,6-Dimethoxyphenoxyethyl)aminomethyl-1,4-benzodioxane hydrochloride). Receptor proteins were filtered and washed, the filters were then counted to determine [^3H]MK-912 specifically bound. Compounds were screened at 1 μM or lower, using 1% DMSO as vehicle. Compounds of the invention were tested in this biochemical assay and percent inhibition of specific binding was determined. Biochemical assay results are presented as the percent inhibition of specific binding in Table B1a.
# [4] = target: T3, Human adrenergic α2A receptor; assay: β-Arrestin GPCR functional assay, adrenergic α2A (Protocol B); assay type: cell-based; settings: β-arrestin, antagonist vs nor-epinephrine EC80
# Experimental: (§1) To evaluate the activity of compounds in β-Arrestin GPCR functional assays, recombinant CHO cell line (DiscoveRX), over expressed with human adrenergic α2A receptor were used. The experiment was done with kit of DiscoveRX as per recommended protocol of the supplier. Cells were harvested from culture flask using cell dissociation solution (CDS) and plated at a density of 12,000 cells/well in CP reagent (supplied with the kit) in a half area 96-well white polystyrene plate. After 24 h incubation at 37° C., compounds at various concentrations in 1% (final) DMSO were charged to the cells for 30 min at 37° C. Active nor-epinephrine (-NE) at its EC80 concentrations (270 nM) were then added to the cells and incubated for another 90 min at 37° C. Detection mix was prepared by mixing of Path Hunter cell assay buffer, Emerald II solution and Galactone star solution in a ratio of 19:5:1 and incubated with the cells for 60 min at RT in the dark. The reading was taken in Envision at luminescence mode. Biochemical assay results are presented as the percent Inhibition in Table B2a, or IC50 values in Table B2b.
# [5] = target: T2, Human adrenergic α2B receptor; assay: β-Arrestin GPCR functional assay, adrenergic α2B (Protocol B); assay type: cell-based; settings: β-arrestin, antagonist vs nor-epinephrine EC80; read-out: IC50 Adrenergic α2B
# Experimental: as §1, with “α2B” for “α2A”, “(50” for “(270”
# [6] = target: T2, Human adrenergic α2B receptor; assay: Radioligand binding, adrenergic α2B (Protocol Group B); set-up: purchased Milipore (Millipore); settings: Protocol Group B
# Method in brief: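 Recombinant human α2B receptor membranes incubated with compounds in 50 mM Tris-HCl pH 7.4, 5 mM MgCl2, 1 mM CaCl2, 0.2% BSA, 1% DMSO vehicle. Non-specific binding defined with 10 μM rauwolscine. Values are percent inhibition of specific binding or estimated Ki.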
# [7] = target: T3, Human adrenergic α2A receptor; assay: Radioligand binding, adrenergic α2A (Protocol Group B); set-up: purchased Milipore (Millipore); settings: Protocol Group B
# Method in brief: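 Membranes from recombinant cells expressing the receptor, in 50 mM Tris-HCl pH 7.4 with 5 mM MgCl2, 1 mM CaCl2, 0.2% BSA; compounds incubated with 2 nM [^3H]MK-912 for 60 min at 25° C. Nonspecific binding defined by 10 μM rauwolscine; filtration, counting; percent inhibition of specific binding, or estimated Ki.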
# [8] = target: T4, Human adrenergic α1B receptor (Homo sapiens, UniProt P35368); assay: Radioligand binding, adrenergic α1B (Protocol Group B); set-up: purchased Milipore (Millipore); settings: Protocol Group B
# T4 sequence (P35368 1-520): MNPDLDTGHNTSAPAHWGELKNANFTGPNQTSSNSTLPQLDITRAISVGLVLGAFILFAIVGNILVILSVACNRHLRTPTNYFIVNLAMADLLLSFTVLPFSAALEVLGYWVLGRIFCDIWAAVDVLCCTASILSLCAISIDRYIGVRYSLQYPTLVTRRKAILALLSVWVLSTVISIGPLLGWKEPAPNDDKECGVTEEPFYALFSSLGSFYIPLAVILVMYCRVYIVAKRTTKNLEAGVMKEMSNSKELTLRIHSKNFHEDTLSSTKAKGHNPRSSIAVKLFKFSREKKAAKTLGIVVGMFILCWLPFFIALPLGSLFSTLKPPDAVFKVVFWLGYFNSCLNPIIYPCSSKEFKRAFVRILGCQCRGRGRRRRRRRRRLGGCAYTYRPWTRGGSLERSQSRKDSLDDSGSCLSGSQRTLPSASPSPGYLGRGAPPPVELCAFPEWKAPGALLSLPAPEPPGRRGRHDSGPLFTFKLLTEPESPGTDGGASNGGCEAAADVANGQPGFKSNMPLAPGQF
# Method in brief: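 Recombinant human α1B membranes incubated with test compound and 0.3 nM [3H]prazosin, 60 min at 25 °C, in 50 mM Tris-HCl pH 7.4, 10 mM MgCl2, 1 mM EDTA; nonspecific binding with 10 μM prazosin. Filter-bound radioactivity counted; values are % inhibition of specific binding or estimated Ki.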
compound,measurement,setting,value
"c1cncc(CCn2c3c(c4ccccc42)C2CCCN2CC3)c1 (single isomer, unassigned) [2b]","percent inhibition of specific binding, Adrenergic α1B",[1]; 0.1 µM,4%
same,"percent inhibition of specific binding, Adrenergic α2B",[2]; 0.03 µM,1%
same,"percent inhibition of specific binding, Adrenergic α2A","[3]; [3H]MK-912, 0.1 µM",13%
"Cc1ccc2c(c1)c1c(n2CC(OCCCC(=O)O)c2ccncc2)CCN(C)C1 (stereo not shown) [compound 3, 4-(2-(2,8-dimethyl-3,4-dihydro-1H-pyrido[4,3-b]indol-5 (2H)-yl)-1-(pyridin-4-yl)ethoxy)butanoic acid]",inhibition at 0.1 µM,[1],-5%
same,inhibition at 0.03 µM,[2],7%
same,inhibition at 0.1 µM,[3],5%
"Cc1ccc2c(c1)c1c(n2CC(OC(=O)N2CCN(C)CC2)c2ccncc2)CCN(C)C1 (stereo not shown) [compound 5, 2-(2,8-dimethyl-3,4-dihydro-1H-pyrido[4,3-b]indol-5 (2H)-yl)-1-(pyridin-4-yl)ethyl 4-methylpiperazine-1-carboxylate]",inhibition at 0.1 µM,[1],5%
same,inhibition at 0.03 µM,[2],13%
same,inhibition at 0.1 µM,[3],10%
"Cc1ccc2c(c1F)c1c(n2CC(C)(O)c2cccnc2)CCN2CCCC12 (single isomer, unassigned) [87d]",pIC50,[4],5.43
same,pIC50,[5],7.36
same,"Percentage inhibition of ligand binding, Adrenergic α2B (10 nM)","[6]; 10 nM compound, 0.01 µM",87%
same,"Percentage inhibition of ligand binding, Adrenergic α2B (30 nM)","[6]; 30 nM compound, 0.03 µM",97%
same,pKi,"[6]; estimated Ki, read-out: Ki α2B",8.81
same,"Percentage inhibition of ligand binding, Adrenergic α2A (0.1 μM)","[7]; 0.1 μM compound, 0.1 µM",57%
same,"Percentage inhibition of ligand binding, Adrenergic α2A (0.3 μM)","[7]; 0.3 μM compound, 0.3 µM",79%
same,pKi,[7]; estimated Ki,7.26
same,"Percentage inhibition of ligand binding, Adrenergic α1B (0.1 μM)","[8]; 0.1 μM compound, 0.1 µM",34%
same,"Percentage inhibition of ligand binding, Adrenergic α1B (0.3 μM)","[8]; 0.3 μM compound, 0.3 µM",67%
